Measured values published in publication PMC8271877, “Identifying a Deferiprone–Resveratrol Hybrid as an Effective Lipophilic Anti-Plasmodial Agent” (Molecules, 2021).
“Also recorded” adds a separate entry of the source. Read-outs that look alike come from different tables or passages of the source.

Legend:
P. falciparum [1] = settings: read-out: IC50 against P. falciparum; cited from earlier work
[2] = design: method as in PMID 32208614; settings: cited from earlier work
[3] = system: P. falciparum (K1 strain); experiment: Drug sensitivity test (SYBR Green I), P. falciparum K1 strain; format: cell-based, Plasmodium falciparum
[4] = Partition coefficient (Po/w), 1-octanol/water system; settings: mean ± SD of three repetitions
[5] = design: method as in PMID 28061347; settings: metal-chelating activity; cited from earlier work
normal cell line = settings: read-out: IC50, normal cell line; cited from earlier work
P. falciparum [6] = system: P. falciparum; design: method as in PMID 26424148; settings: read-out: IC50, inhibition of P. falciparum growth; cited from earlier work
P. falciparum [7] = system: P. falciparum; design: method as in PMID 23266185; settings: read-out: IC50 against P. falciparum; cited from earlier work
[8] = system: labile iron pools in P. falciparum-infected red blood cells (PRBCs); experiment: Labile iron pool (LIP) in P. falciparum-infected RBC, calcein quenching, flow cytometry; format: cell-based, Plasmodium falciparum; settings: for effect on MFI values of PRBCs (LIP content): 25–200 µM, calcein fluorescence, higher MFI = less LIP
[9] = cited from earlier work
[10] = design: method as in PMID 26424148; settings: cited from earlier work
[11] = system: P. falciparum (3D7 strain); experiment: Drug sensitivity test (SYBR Green I), P. falciparum 3D7 strain; format: cell-based, Plasmodium falciparum; settings: for IC50: read-out: Absolute IC50 Value, P. falciparum (3D7 Strain)
healthy human PBMCs = experiment: MTT toxicity study in peripheral blood mononuclear cells
[12] = design: method as in PMID 28061347; settings: read-out: IC50, antioxidant activity; cited from earlier work
Aβ1–42 = system: Aβ1–42; design: method as in PMID 28061347; settings: read-out: IC50, Cu2+/Fe3+-induced Aβ1–42 aggregation; cited from earlier work
[13] = Plasmodium falciparum, K1, 48 h, read-out: Absolute IC50 Value, P. falciparum (K1 Strain), PYR-resistant K1, 48 h, monotherapy
[14] = Plasmodium falciparum, 3D7, 48 h

For `CC(=O)N(O)CCCCCNC(=O)CCC(=O)N(O)CCCCCNC(=O)CCC(=O)N(O)CCCCCN` [DFO, desferrioxamine], which IC50 (P. falciparum [1]) is on record?
Its IC50 is 30 µM.

Which “iron-mobilizing efficacy in rats” value [2] does the source give for `Cc1c(O)c(=O)ccn1C` [DFP, 1,2-dimethyl-3-hydroxypyridin-4-one] here?
Its value is 11.8%.

And the IC50 [3, 13]?
The IC50 was 42 µM.

What about the “Po/w Values (partition coefficient)” value [4] of the same compound?
Its value is 0.18 ± 0.06.

And the “pFe(III)” value [5]?
Its value is 20.6.

What about the IC50 (normal cell line) of the same compound?
The IC50 was over 200 µM.

And the IC50 (P. falciparum [6])?
Its IC50 is 58.2 µM.

What about the IC50 (P. falciparum [7]) of the same compound?
The IC50 was 67 µM.

What about the “effect on MFI values of PRBCs (LIP content)” value [8] of the same compound?
Its value is “significantly increased the MFI values”.

What about the “log Po/w values for free ligands” value [9] of the same compound?
Its value is −0.77.

What about the “log Po/w values for [Fe-L3]” value ([9]; iron complex) of the same compound?
The value was −2.6.

What about the Kpart [10] of the same compound?
The Kpart was 0.17.

What about the IC50 (P. falciparum [1]) of the same compound?
Its IC50 is 15 µM.

What about the IC50 [11, 14] of the same compound?
Its IC50 is 47.7 µM.

Which results are given for `Cn1cc(O)c(=O)cc1C=Cc1cc(O)cc(O)c1` [DFP-RVT, 2-(3,5-dihydroxystyryl)-5-hydroxy-1-methylpyridin-4(1H)-one]?
anti-malarial activity of combined treatment with PYR, K1 strain ([3]; DFP-RVT (0–15 µM) with 75 µM PYR, 48 h): significantly enhanced the anti-malarial activity; also recorded: additive effects; IC50 [3, 13]: 13.4 µM; IC50 ([3]; read-out: Absolute IC50 Value, P. falciparum (K1 Strain), PYR-resistant K1, 48 h, monotherapy): 14 µM; toxicity to PBMCs (healthy human PBMCs; 200 µM, 48 h of incubation): slightly toxic; toxicity to PBMCs (healthy human PBMCs; 25–200 µM, 24 h of incubation): not found to be toxic; toxicity to PBMCs (words, summary) (healthy human PBMCs; concentrations up to 200 µM): nontoxic to blood mononuclear cells; pFe(III) [5]: 19.6; IC50 [12]: 1.73 µM; effect on MFI values of PRBCs (LIP content) [8]: significantly increased the MFI values; reduction in LIP levels in PRBCs compared with DFP (∆MFI) ([8]; equal concentrations): more effective than conventional DFP at equal concentrations; IC50 (Aβ1–42): 10.7 µM; anti-malarial activity of combined treatment with PYR, 3D7 strain ([11]; DFP-RVT 5–15 µM with 25 nM PYR, 48 h): significant level of enhancement of anti-malarial activity; also recorded: additive effects; IC50 [11, 14]: 16.8 µM

For `Cc1c(C)c2c(c(C)c1O)CCC(C)(C(=O)O)O2` (stereo not shown) [Trolox], which IC50 [12] is on record?
The IC50 was 3.89 µM.

For `Oc1ccc(/C=C/c2cc(O)cc(O)c2)cc1` [RVT, 3,5,4′-trihydroxy-trans-stilbene], which IC50 (Aβ1–42) is on record?
Its IC50 is 11.9 µM.

What does the source list for `CCc1nc(N)nc(N)c1-c1ccc(Cl)cc1` [PYR, pyrimethamine]?
IC50 ([3]; PYR-resistant K1, 48 h, monotherapy, read-out: Absolute IC50 Value, P. falciparum (K1 Strain)): 106 µM; IC50 ([3]; Plasmodium falciparum, K1, 48 h, PYR-resistant K1, 48 h, monotherapy, read-out: Absolute IC50 Value, P. falciparum (K1 Strain)): 106 µM; IC50 ([11]; PYR-sensitive wild-type 3D7, 48 h, monotherapy): 0.05 µM; IC50 ([11]; Plasmodium falciparum, 3D7, 48 h, PYR-sensitive wild-type 3D7, 48 h, monotherapy): 0.046 µM

With `COCCOCCOCCOc1cccc(C2=N[C@@](C)(C(=O)O)CS2)c1O` [DADFT-PE, (S)3″-(HO)-desazadesferrithiocin-polyether] as the compound, how does the IC50 (P. falciparum [1]) read?
The IC50 was 6 µM.

With `CC(=O)NCCCCCCn1ccc(=O)c(O)c1C` [CM1, 1-(N-acetyl-6-aminohexyl)-3-hydroxy-2-methylpyridin-4-one] as the compound, how does the IC50 (P. falciparum [6]) read?
The IC50 was 35.1 µM.

What about the Kpart [10] of the same compound?
Its Kpart is 0.53.

Which IC50 (Aβ1–42) does the source give for `COc1cc(/C=C/C(=O)CC(=O)/C=C/c2ccc(O)c(OC)c2)ccc1O` [curcumin] here?
Its IC50 is 18.7 µM.
